# Laboratory results from patent US8785380B2 (priority 2011, dated 2014).
# Legend:
# [1] = In vitro release of curcumin at pH 6.8 and pH 1.2, 37 °C; format: physicochemical; settings: for Cumulative percent of release of curcumin: 37 °C, after 24 hour
# Method: Each data point is an average of 3 measurements (n=3) performed under identical conditions. […] Studies were performed in triplicate and mean cumulative percentage of released curcumin was calculated and plotted against time. […] This could be attributed to the very slow initial swelling of polysaccharide chains in water and its further dissolution to allow the leaching of entrapped curcumin into the solution in the dissolution flask.
# [2] = male, Wistar albino, rat, in vivo, po, 250 mg/kg
# Method: Concentration was determined by HPLC/PDA detection.
# […] blood was collected after each time point, ca. 0, 0.5, 1, 3, 5, 10 and 24 hours respectively into heparinized tubes and centrifuged at 6000×g for 15 minutes. Plasma was decanted and stored at −80° C. until analysis. […] Briefly, 1 mL of plasma was extracted with 3×10 mL of ethyl acetate and is dried over anhydrous sodium sulphate and evaporated to dryness. The residue was then made up to 10 mL with methanol and 20 μL was injected to Shimadzu model LC-20 AT HPLC fitted with a PDA detector model M20A using a reverse phase C18 column (Phenomenex 250×4.6 mm, 5μ) and methanol mobile phase monitored at 420 nm.
# Curcuminoid retention time was confirmed by repeated 10 analyses at 50 mg level on same column under identical conditions. […] Analysis was performed by incorporating a Waters Alliance LC fitted with Waters 3100 ESI mass detector.
# [3] = human, in vivo, po
# Method: The enhancement of bioavailability was also tested on human volunteers of age group between 25 to 50, who were healthy and not involved in any medication or health supplementation. The volunteers were not allowed to take turmeric-containing food for two days prior to the test.
# 6 mL blood of each volunteer was withdrawn at 0, 0.5, 1, 3, 5, 8 and 24 hours respectively and plasma samples were deep-frozen at −80° C. till analysis.
structure (smiles),measurement,setting,value
"COc1cc(/C=C/C(=O)CC(=O)/C=C/c2ccc(O)c(OC)c2)ccc1O [unformulated curcumin, curcumin]",curcumin dissolved,[1]; after 24 hours,around 0.4%
same,Cumulative percent of release of curcumin,[1]; pH 1.2 0.1M HCl,0.06%
same,Cumulative percent of release of curcumin,[1]; pH 6.8 phosphate buffer,0.08%
same,Tmax (time taken to reach maximum concentration in plasma),[2],3 h
same,time of maximum absorption of curcuminoids in the plasma,[3],around 30 min
